Measurements published in patent US20250376461A1, “INDAZOLE DERIVATIVES FOR TREATING TRPM3-MEDIATED DISORDERS” (Katholieke Universiteit Leuven, priority 2022, published 2025).

Target: T1, mouse TRPM3α2 (mTRPM3) ion channel (Mus musculus, UniProt J9SQF3)
T1 construct: expressed in transfected cells; host or cells: flip-in HEK293
Assay: TRPM3 ion channel driven Ca2+ uptake, Fluo-4 AM assay, mTRPM3alpha2 overexpressing flip-in HEK293 cells stimulated with pregnenolone sulfate (50 μM)
Format: cell-based
Settings: mTRPM3 overexpressing HEK293 cells stimulated with pregnenolone sulfate (50 μM), activity ranges A, B, C
Method: Monitoring the TRPM3 Ion Channel Driven Ca2+ Uptake.
In order to monitor the inhibition of the mouse TRPM3α2 (mTRPM3) ion channel by the compounds of the invention, a cellular system making use of an mTRPM3alpha2 or hTRPM3 overexpressing cell line (flip-in HEK293) was used. The TRPM3 channel was stimulated/opened with Pregnenolone sulfate (PS) (50 μM) which results in Ca^2+ influx.
For mTRPM3, the intracellular Ca^2+ was measured with a Calcium responsive dye, Fluor-4 AM ester (Invitrogen). Cells were cultured until a confluence of 80-90%, washed with Versene (Invitrogen) and detached from the surface by a short incubation with 0.05% Trypsin (Invitrogen). The trypsination process was stopped by the addition of complete cell culture medium (DMEM, glutamax, 10% FCS, NEAA, Pen-Strep). Cells were collected and resuspended in Krebs buffer without Calcium at RT.
Prior the cell seeding (±2000 cells/well into a black, 384 well plate (Greiner)) the diluted compound was added in the assay plate, together with the PS dissolved in Krebs buffer containing Calcium. […] Directly after cell addition the plates were read on an Envision fluorescence reader (Perkin Elmer) by an Excitation of 485 nm and emission at 535 nm.
Channel inhibition was calculated compared to a non-PS stimulated control versus a condition stimulated with PS (50 μM) with vehicle. The ability of the compounds of the invention to inhibit this activity was determined as: Percentage inhibition=[1−((RFU determined for sample with test compound present−RFU determined for sample with positive control inhibitor) divided by (RFU determined in the presence of vehicle−RFU determined for sample with positive control inhibitor))]*100.
The activities of the Example compounds cpd 001-262 tested are depicted in the table below. All tested compounds show an activity in the Fluo-4 AM assay. The activity ranges A, B and C refer to IC50 values in the Fluo-4 AM assay as follows: “A”: IC50<1 μM; “B”: 1 μM≤IC50≤20 μM and “C”: IC50>20 μM.

T1 sequence (J9SQF3 1-1709 isoform J9SQF3-12): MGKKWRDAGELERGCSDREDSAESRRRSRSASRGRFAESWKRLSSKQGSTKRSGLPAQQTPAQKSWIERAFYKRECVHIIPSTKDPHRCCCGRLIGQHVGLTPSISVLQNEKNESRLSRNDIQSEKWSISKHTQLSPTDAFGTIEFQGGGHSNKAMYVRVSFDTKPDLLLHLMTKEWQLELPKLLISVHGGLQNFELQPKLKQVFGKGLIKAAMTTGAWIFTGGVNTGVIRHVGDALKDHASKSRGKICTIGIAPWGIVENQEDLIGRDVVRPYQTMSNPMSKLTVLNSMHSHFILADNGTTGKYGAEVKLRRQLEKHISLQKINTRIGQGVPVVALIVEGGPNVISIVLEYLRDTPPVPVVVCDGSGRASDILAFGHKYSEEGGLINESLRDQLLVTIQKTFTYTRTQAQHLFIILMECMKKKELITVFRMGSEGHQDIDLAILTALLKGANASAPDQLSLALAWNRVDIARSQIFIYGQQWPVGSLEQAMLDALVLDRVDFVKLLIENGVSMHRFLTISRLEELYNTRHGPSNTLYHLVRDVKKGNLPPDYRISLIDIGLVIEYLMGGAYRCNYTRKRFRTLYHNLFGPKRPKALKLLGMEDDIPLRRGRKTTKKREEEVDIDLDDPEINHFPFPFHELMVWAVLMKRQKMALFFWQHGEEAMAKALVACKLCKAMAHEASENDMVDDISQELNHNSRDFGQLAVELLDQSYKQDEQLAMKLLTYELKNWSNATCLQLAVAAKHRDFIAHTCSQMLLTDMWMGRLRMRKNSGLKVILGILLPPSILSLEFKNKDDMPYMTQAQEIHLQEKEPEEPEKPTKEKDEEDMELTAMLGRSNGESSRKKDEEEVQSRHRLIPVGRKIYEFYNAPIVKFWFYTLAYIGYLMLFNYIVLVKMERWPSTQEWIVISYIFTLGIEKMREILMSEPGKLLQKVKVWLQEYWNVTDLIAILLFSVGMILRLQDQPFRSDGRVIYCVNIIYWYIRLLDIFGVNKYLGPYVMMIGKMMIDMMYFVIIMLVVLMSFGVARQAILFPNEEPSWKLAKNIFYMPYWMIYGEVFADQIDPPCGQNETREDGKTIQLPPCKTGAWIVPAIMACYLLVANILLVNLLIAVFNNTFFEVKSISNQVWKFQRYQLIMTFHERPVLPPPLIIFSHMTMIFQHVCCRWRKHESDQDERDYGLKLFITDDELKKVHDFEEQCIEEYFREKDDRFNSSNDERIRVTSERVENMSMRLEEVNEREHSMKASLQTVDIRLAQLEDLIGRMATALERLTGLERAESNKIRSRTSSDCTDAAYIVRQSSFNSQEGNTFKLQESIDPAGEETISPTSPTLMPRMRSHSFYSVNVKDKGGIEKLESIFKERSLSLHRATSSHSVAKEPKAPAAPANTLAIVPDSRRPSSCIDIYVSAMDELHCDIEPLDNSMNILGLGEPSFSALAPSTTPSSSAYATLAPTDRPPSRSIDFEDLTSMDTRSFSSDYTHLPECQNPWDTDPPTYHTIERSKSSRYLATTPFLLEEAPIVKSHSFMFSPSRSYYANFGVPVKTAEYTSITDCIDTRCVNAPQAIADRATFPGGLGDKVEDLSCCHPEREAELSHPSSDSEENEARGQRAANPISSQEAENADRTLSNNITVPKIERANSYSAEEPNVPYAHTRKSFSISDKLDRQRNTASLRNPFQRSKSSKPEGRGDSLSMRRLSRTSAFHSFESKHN

Row | IC50 [µM] | Compound
1 | < 1 | Cc1ncc(COc2ccc3nn(C)c(C(=O)NC(C)(CO)C(N)=O)c3c2)o1 (single isomer, unassigned) [Cpd 179 - En2]
2 | 1 to 20 | Cn1cc(COc2ccc3nn(C)c(C(=O)NC(C)(CO)C(N)=O)c3c2)cn1 (stereo not drawn) [Cpd 156, 3-hydroxy-2-methyl-2-({2-methyl-5-[(1-methyl-1H-pyrazol-4-yl)methoxy]-2H-indazol-3-yl}formamido)propanamide]
3 | > 20 | Cc1ncsc1COc1ccc2nn(C)c(C(=O)NC3CCNC3)c2c1 (single isomer, unassigned) [Cpd 215 - En1]
4 | < 1 | Cc1ncsc1COc1ccc2nn(C)c(C(=O)NC(C)(CO)CC(F)F)c2c1 (single isomer, unassigned) [Cpd 182 - En1]
5 | 1 to 20 | Cc1ncc(COc2ccc3nn(C)c(C(=O)NC4(CO)COC4)c3c2)s1 [Cpd 105, N-[3-(hydroxymethyl)oxetan-3-yl]-2-methyl-5-[(2-methyl-1,3-thiazol-5-yl)methoxy]-2H-indazole-3-carboxamide]
6 | < 1 | Cn1nc2ccc(OCc3cccnc3C(F)(F)F)cc2c1C(=O)NC(CO)C(N)=O (stereo not drawn) [Cpd 026, 3-hydroxy-2-[(2-methyl-5-{[2-(trifluoromethyl)pyridin-3-yl]methoxy}-2H-indazol-3-yl)formamido]propanamide]
7 | > 20 | Cc1ccc(COc2ccc3nn(C)c(C(=O)NC(C)(CO)C(N)=O)c3c2)nc1 (single isomer, unassigned) [Cpd 181 - En1]
8 | 1 to 20 | CC1CC(COc2ccc3nn(C)c(C(=O)NC(C)(CO)C(N)=O)c3c2)C1 (stereo not drawn) [Cpd 196, 3-hydroxy-2-methyl-2-({2-methyl-5-[(3-methylcyclobutyl)methoxy]-2H-indazol-3-yl}formamido)propenamide]
9 | > 20 | Cn1nccc1COc1ccc2nn(C)c(C(=O)NC3(CCO)CCC3)c2c1 [Cpd 079, N-[1-(2-hydroxyethyl)cyclobutyl]-2-methyl-5-[(1-methyl-1H-pyrazol-5-yl)methoxy]-2H-indazole-3-carboxamide]
10 | > 20 | Cn1nccc1COc1ccc2nn(C)c(C(=O)NC3CCNC3=O)c2c1 (stereo not drawn) [Cpd 062, 2-methyl-5-[(1-methyl-1H-pyrazol-5-yl)methoxy]-N-(2-oxopyrrolidin-3-yl)-2H-indazole-3-carboxamide]
11 | 1 to 20 | Cn1nc2ccc(OCc3ccccn3)cc2c1C(=O)NC1(C(N)=O)CCOCC1 [Cpd 085, N-(4-carbamoyloxan-4-yl)-2-methyl-5-[(pyridin-2-yl)methoxy]-2H-indazole-3-carboxamide]
12 | 1 to 20 | Cn1nc2ccc(OCc3cccnc3C(F)(F)F)cc2c1C(=O)NC(C)(C)CO [Cpd 076, N-(1-hydroxy-2-methylpropan-2-yl)-2-methyl-5-{[2-(trifluoromethyl)pyridin-3-yl]methoxy}-2H-indazole-3-carboxamide]
13 | 1 to 20 | Cn1nc2ccc(OCC3CC3)cc2c1C(=O)NC(C)(CO)CO [Cpd 135, 5-(cyclopropylmethoxy)-N-(1,3-dihydroxy-2-methylpropan-2-yl)-2-methyl-2H-indazole-3-carboxamide]
14 | 1 to 20 | Cc1ncc(COc2ccc3nn(C)c(C(=O)NC(CO)(CO)CO)c3c2)s1 [Cpd 147, N-[1,3-dihydroxy-2-(hydroxymethyl)propan-2-yl]-2-methyl-5-[(2-methyl-1,3-thiazol-5-yl)methoxy]-2H-indazole-3-carboxamide]
15 | < 1 | Cc1ncc(COc2ccc3nn(C)c(C(=O)N[C@H](C(N)=O)[C@@H](C)O)c3c2)s1 [Cpd 149, (2S,3R)-3-hydroxy-2-({2-methyl-5-[(2-methyl-1,3-thiazol-5-yl)methoxy]-2H-indazol-3-yl}formamido)butanamide]
16 | 1 to 20 | Cn1nccc1COc1ccc2nn(C)c(C(=O)NC3(CO)CCC3)c2c1 [Cpd 044, N-[1-(hydroxymethyl)cyclobutyl]-2-methyl-5-[(1-methyl-1H-pyrazol-5-yl)methoxy]-2H-indazole-3-carboxamide]
17 | < 1 | Cn1nc2ccc(OCc3cccnc3)cc2c1C(=O)NC(C)(CO)C(N)=O (single isomer, unassigned) [Cpd 190 - En2]
18 | 1 to 20 | Cn1nc2ccc(OCc3ccccn3)cc2c1C(=O)NC1(CO)CCNC1=O (single isomer, unassigned) [Cpd 253 - En2]
19 | 1 to 20 | Cc1ncsc1COc1ccc2nn(C)c(C(=O)NC3(C(N)=O)CCOC3)c2c1 (single isomer, unassigned) [Cpd 170 -En2]
20 | 1 to 20 | Cc1ncsc1COc1ccc2nn(C)c(C(=O)NC(C)(C)C(N)=O)c2c1 [Cpd 110, 2-methyl-2-({2-methyl-5-[(4-methyl-1,3-thiazol-5-yl)methoxy]-2H-indazol-3-yl}formamido)propanamide]
21 | 1 to 20 | Cn1nc2ccc(OCc3ccccn3)cc2c1C(=O)N[C@@H]1CCN(CCO)C1=O [Cpd 152, N-[(3R)-1-(2-hydroxyethyl)-2-oxopyrrolidin-3-yl]-2-methyl-5-[(pyridin-2-yl)methoxy]-2H-indazole-3-carboxamide]
22 | 1 to 20 | Cc1ccc(COc2ccc3nn(C)c(C(=O)NC(C)(CO)C(N)=O)c3c2)cn1 (single isomer, unassigned) [Cpd 174 - En1]
23 | > 20 | Cn1nc2ccc(OCC3CCOCC3)cc2c1C(=O)NC(C)(CO)C(N)=O (single isomer, unassigned) [Cpd 158 - En2]

Continued, molecule first:

Row | Compound | IC50 [µM]
24 | Cn1nc2ccc(OCc3ccccc3)cc2c1C(=O)NCCN1CCOC1=O [Cpd 045, 5-(benzyloxy)-2-methyl-N-[2-(2-oxo-1,3-oxazolidin-3-yl)ethyl]-2H-indazole-3-carboxamide] | > 20
25 | Cn1nc2ccc(OCc3cccnc3C(F)(F)F)cc2c1C(=O)NCC(C)(C)N1CCOCC1 [Cpd 068, 2-methyl-N-[2-methyl-2-(morpholin-4-yl)propyl]-5-{[2-(trifluoromethyl)pyridin-3-yl]methoxy}-2H-indazole-3-carboxamide] | 1 to 20
26 | Cn1ccc(C(CO)NC(=O)c2c3cc(OCc4ccccn4)ccc3nn2C)n1 (single isomer, unassigned) [Cpd 251 - En1] | > 20
27 | Cn1nc2ccc(OCc3ccccc3C(F)F)cc2c1C(=O)NC1(CO)CCNC1=O (single isomer, unassigned) [Cpd 176 - En1] | < 1
28 | Cn1nc2ccc(OCc3ccccc3)cc2c1C(=O)NCC1CCC(=O)N1 (stereo not drawn) [Cpd 066, 5-(benzyloxy)-2-methyl-N-[(5-oxopyrrolidin-2-yl)methyl]-2H-indazole-3-carboxamide] | > 20
29 | Cn1nc2ccc(OCc3ccccn3)cc2c1C(=O)NC(CO)c1ccc(F)cc1 (single isomer, unassigned) [Cpd 220 - En2] | > 20
30 | CN(C)CC(C)(C)CNC(=O)c1c2cc(OCc3ccccn3)ccc2nn1C [Cpd 207, N-[3-(dimethylamino)-2,2-dimethylpropyl]-2-methyl-5-[(pyridin-2-yl)methoxy]-2H-indazole-3-carboxamide] | > 20
31 | Cn1nc2ccc(OCc3ccccn3)cc2c1C(=O)NC1(CC(F)F)CCCNC1 (single isomer, unassigned) [Cpd 248 - En1] | > 20
32 | Cn1nc2ccc(OCc3ccccn3)cc2c1C(=O)NCC(O)CC(F)(F)F (single isomer, unassigned) [Cpd 245 - En2] | > 20
33 | Cn1nc2ccc(OCc3ccccn3)cc2c1C(=O)NC(CCO)c1ccc(F)cc1 (single isomer, unassigned) [Cpd 223 - En2] | > 20
34 | Cn1nc2ccc(OCc3ccccn3)cc2c1C(=O)NC(CO)CC(F)(F)F (single isomer, unassigned) [Cpd 226-En2] | > 20
35 | Cn1nc2ccc(OCc3ccccn3)cc2c1C(=O)NC(CO)Cc1ccccn1 (single isomer, unassigned) [Cpd 252 - En1] | > 20
36 | CN(C)CC(C)(CC(F)F)NC(=O)c1c2cc(OCc3ccccn3)ccc2nn1C (single isomer, unassigned) [Cpd 229 - En2, N-[1-(dimethylamino)-4,4-difluoro-2-methylbutan-2-yl]-2-methyl-5-[(pyridin-2-yl)methoxy]-2H-indazole-3-carboxamide] | > 20
37 | Cn1nc2ccc(OCc3ccccn3)cc2c1C(=O)NC(CO)CC(F)F (single isomer, unassigned) [Cpd 228 - En1] | < 1
38 | Cn1nc2ccc(OCc3cccnc3C(F)(F)F)cc2c1C(=O)NC1CCNC1=O (stereo not drawn) [Cpd 007, 2-methyl-N-(2-oxopyrrolidin-3-yl)-5-{[2-(trifluoromethyl)pyridin-3-yl]methoxy}-2H-indazole-3-carboxamide] | < 1
39 | Cn1nc2ccc(OCc3ccccn3)cc2c1C(=O)NC1(CO)CC(F)(F)C1 [Cpd 217, N-[3,3-difluoro-1-(hydroxymethyl)cyclobutyl]-2-methyl-5-[(pyridin-2-yl)methoxy]-2H-indazole-3-carboxamide] | 1 to 20
